Results as given in PMC2367043, “Effects of Ursolic Acid and its Analogues on Soybean 15-Lipoxygenase Activity and the Proliferation Rate of A human Gastric Tumour Cell Line” (Mediators of Inflammation, 1994).
Read-outs that look alike come from different tables or passages of the source.

Biological target: T1, soybean 15-lipoxygenase (Glycine max, UniProt P08170)
T1 construct: gene LOX1.1
T1 sequence (P08170 1-839): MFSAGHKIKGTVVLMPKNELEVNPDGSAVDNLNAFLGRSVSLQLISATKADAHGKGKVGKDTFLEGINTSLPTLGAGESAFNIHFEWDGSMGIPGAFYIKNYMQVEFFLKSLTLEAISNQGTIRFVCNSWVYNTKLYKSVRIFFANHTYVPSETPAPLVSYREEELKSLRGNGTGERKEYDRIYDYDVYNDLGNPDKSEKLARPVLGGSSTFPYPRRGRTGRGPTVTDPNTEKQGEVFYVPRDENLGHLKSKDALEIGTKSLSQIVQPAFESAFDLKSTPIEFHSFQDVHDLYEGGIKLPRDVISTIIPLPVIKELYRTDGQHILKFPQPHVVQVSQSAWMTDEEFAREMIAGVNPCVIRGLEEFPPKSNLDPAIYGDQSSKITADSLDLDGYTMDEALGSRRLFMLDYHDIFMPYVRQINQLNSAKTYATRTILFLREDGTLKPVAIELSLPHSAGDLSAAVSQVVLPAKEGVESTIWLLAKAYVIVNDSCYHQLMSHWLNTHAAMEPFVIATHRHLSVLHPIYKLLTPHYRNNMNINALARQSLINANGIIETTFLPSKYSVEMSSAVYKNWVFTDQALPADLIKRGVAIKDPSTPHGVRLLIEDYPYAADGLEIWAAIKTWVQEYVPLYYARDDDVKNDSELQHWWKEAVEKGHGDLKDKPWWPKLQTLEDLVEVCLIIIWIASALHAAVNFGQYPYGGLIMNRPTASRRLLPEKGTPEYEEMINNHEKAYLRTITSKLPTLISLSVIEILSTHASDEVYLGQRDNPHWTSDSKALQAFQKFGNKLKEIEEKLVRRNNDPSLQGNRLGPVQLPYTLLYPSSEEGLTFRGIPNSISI
Assay: spectrophotometric assay at […] nm of […](S)-HPODE formation from linoleic acid, pH […]
Format: biochemical

Row | IC50 (read-out: IC50) [µM] | SMILES | IC50 [µM]
1 | – | CC1(C)CC[C@]2(C(=O)O)CC[C@]3(C)C(=CC[C@@H]4[C@@]5(C)CC[C@H](O)C(C)(C)[C@@H]5CC[C@]43C)[C@@H]2C1 [oleanolic acid] | 265
2 | 175 | C[C@H]1[C@H](C)CC[C@]2(C(=O)O)CC[C@]3(C)C(=CC[C@@H]4[C@@]5(C)CC[C@H](O)C(C)(C)[C@@H]5CC[C@]43C)[C@H]12 [ursolic acid] | –
